The values that follow come from patent US7122621B2, “Anti-cellular proliferative disorder polypeptide” (Academia Sinica, priority 2003, dated 2006).

Like-named read-outs stand apart in the source and are kept apart here. No end group written: not given here.

Data set [1] relates to HL-60. The data set can be described thus: cells. As to the method:
(§1) To evaluate the cell lysis activity of CHM1, a cytotoxcity assay was conducted according to the method described in Chen H. et al., Biochim. Biophys. Acta 1336:171–179, 1997 and Wang W. et al., J. Biol. Chem. 273:27438–27448, 1998.
(§2) Anchorage-independent normal cells such as red blood cells and lymphoblast RPMI 7666 cells, and leukemia cell lines such as CCRF-CEM, HL-60, and Jurkat, K-562 cells were respectively maintained in RMPI-1640 culture media containing 10% FBS, 100 unit/ml penicillin G, and 100 μg/ml streptomycin. Cells of each type were seeded at 1×10^5/ml into a 25 cm^2 flask (Falcon) and cultured at 37° C. in the presence of 5% CO2 for two days. The cells were then centrifuged at 1000 rpm for 5 min. The resultant pellet was washed twice with the just-mentioned culture medium, resuspended in an RMPI-1640 medium containing 0.5% FBS, and cultured overnight.
(§3) Each of the above-prepared cell suspensions was adjusted so that it contained 1×10^5 cells/ml before being transferred into 9 wells of a 96-well plate (90 μl/well). The suspension in each well was mixed with 10 ul of a culture medium containing CHM1 freshly prepared from a […] stock solution so that the final concentrations in the 9 wells were 0, 1, 5, 10, 15, 20, 30, 50, and 100 μM, respectively. Triplicates for each well were set up. After incubating for 24 hours, a microtetrazolium (MTT)-based colorimetric assay was conducted. It is known that MTT can be metabolized by mitochondrial dehydrogenases in metabolically active cells to form a formazan salt, which has a strong absorption at 570 nm. To conduct the assay, 20 μl of a solution containing 5 mg/ml MTT (Boehringer Mannheim) was added to each of the wells mentioned above and a well containing 100 μl of PBS. The latter was used as a blank control. After incubating for 4 hours, 100 μl of a solution containing 10% SDS and […] HCl was added to each well. The plate was then incubated at 37° C. overnight. The absorbance at 570 nm of the mixture in each well was measured using a Bio-Rad model 450 microtiter plate reader. An average cell survival rate of each triplicate was determined based on the corresponding ΔA570nm relative to that of the well containing 0 μM CHM1. The survival rates thus obtained were plotted against corresponding CHM1 concentrations to form a cell survival curve and derive the IC50. Using the same procedure, also determined were the IC50s of other lytic polypeptides, such as cecropin B (CB), cecropin B1 (CB1), Melittin, and Magainin II, and cancer chemotherapeutic agents, such as doxorubicin (DOX), vincristine (VCR), methotrexate (MTX), 5-fluorouracil (5-Fu), cytarabine (Ara-C), 6-mercaptopurine (6-MP). At least three independent experiments were conducted for each of the polypeptides and agents.

In data set [2] the test system is lymphoblast RPMI 7666 cells. Kind of data set: cells. How it is done: as §1, §2, §3
The subject of data set [3] is CCRF-SB. Kind of data set: MTT-based cytotoxicity assay, CCRF-SB cancer cells. The format is cell-based. The settings on record: Homo sapiens, Table 2, 24 hours incubation. How it is done: as §1, §3
The subject of data set [4] is CCRF-CEM. Kind of data set: cells. How it is done:
as §1, §2, §3

Data set [5] relates to Jurkat. The data set can be described thus: cells. As to the method: as §1, §2, §3
For data set [6], the system named is K-562. The data set can be described thus: cells. How it is done: as §1, §2, §3
In data set [7] the test system is stomach carcinoma (AGS) cells. Kind of data set: cells. As to the method:
as §1
(§4) Anchorage-dependent cells such as tissue cells (3T3 cells) or stomach carcinoma (AGS) cells were seeded at 1×10^4 cells/ml into a 25-cm^2 flask containing D-MEM medium supplemented with 10% FBS, 100 unit/ml penicillin G, and 100 μg/ml streptomycin. Cells were grown to about 80% confluence before being trypsinized. The trypsinized cells were resuspended in a D-MEM medium containing 0.5% FBS.
as §3

Data set [8] relates to tissue cells (3T3 cells). The data set can be described thus: cells. As to the method:
as §1, §4, §3

The test system of data set [9] is red blood cells (RBCs). Kind of data set: Hemolysis of red blood cells. The format is cell-based. The following applies: 200 μM. As to the method:
as §2
Effects of CHM1, melittin, CB, CB1 and doxorubicin on red blood cells (RBCs) were also examined. […] In fact, about 15% of RBCs lysed after being treated with CHM1 (200 μM). In contrast, about 100%, 57%, 55%, and 20% of RBCs lysed after being treated by melittin, CB, CB1, and doxorubicin, respectively, at the same concentration.

[10] abbreviates: Homo sapiens, HL-60, 24 h, read-out: IC50, Cancer Cells HL-60.
Where [11] appears, read: 24 h, read-out: IC50, Lymphoblasts RPMI 7666.
The mark [12] stands for this setting: read-out: IC50, Leukemia cells CCRF-CEM, 24 hours incubation, MTT.
[13] abbreviates: read-out: IC50, Leukemia cells HL-60, Table 1, 24 hours incubation, MTT.
[14] abbreviates: read-out: IC50, Leukemia cells Jurkat, 24 hours incubation, MTT.
Where [15] appears, read: read-out: IC50, Leukemia cells K-562, 24 hours incubation, MTT.
The mark [16] stands for this setting: read-out: IC50, Normal cells Lymphoblast (RPMI7666), Table 1, 24 hours incubation, MTT.
Setting [17] is: read-out: IC50, Stomach Carcinoma AGS, 24 hours incubation, MTT.
Where [18] appears, read: read-out: IC50, Normal cells Tissue cells (3T3), 24 hours incubation, MTT.

One may read the IC50 as the concentration needed to halve the response being measured. Turning to `O=c1[nH]cc(F)c(=O)[nH]1` [5-FU, 5-fluorouracil], the concentration for half-maximal inhibition (IC50) came out at 7.6 ± 10.5 µM in data set [1] (setting [10]), 1.15 ± 0.4 µM in data set [2] (setting [11]) and 123 ± 30.7 µM in data set [3].

For the compound cecropin B1 [CB1], the IC50 in data set [4] (setting [12]) is 4.7 ± 0.2 µM; in data set [1] (setting [13]), 8.1 ± 0.9 µM; in data set [5] (setting [14]) it was 4 ± 0.4 µM; in data set [6] (setting [15]) it was 15.6 ± 1.8 µM; in [2] (setting [16]), greater than 200 µM; in [7] (setting [17]) it was 7.1 ± 1.3 µM. Further, in data set [8] (setting [18]), the 50% inhibitory concentration (IC50) was greater than 50 µM.

For `Sc1ncnc2nc[nH]c12` [6-MP, 6-mercaptopurine], the values for the half-inhibitory concentration (IC50) in [1] (setting [10]), in data set [2] (setting [11]) and in data set [3] were 0.43 ± 0.05 µM, 1.24 ± 0.3 µM and 0.44 ± 0.01 µM, respectively.

For `CC[C@]1(O)C[C@H]2CN(CCc3c([nH]c4ccccc34)[C@@](C(=O)OC)(c3cc4c(cc3OC)N(C=O)[C@H]3[C@@](O)(C(=O)OC)[C@H](OC(C)=O)[C@]5(CC)C=CCN6CC[C@]43[C@@H]65)C2)C1` [VCR, vincristine], the values for the IC50 in data set [1] (setting [10]), in [2] (setting [11]) and in [3] were 0.034 ± 0.01 µM, 0.021 µM and 0.015 ± 0.01 µM, respectively.

In the case of `CC[C@H](C)[C@H](NC(=O)CN)C(=O)NCC(=O)N[C@@H](C)C(=O)N[C@H](C(=O)N[C@@H](CC(C)C)C(=O)N[C@@H](CCCCN)C(=O)N[C@H](C(=O)N[C@@H](CC(C)C)C(=O)N[C@H](C(=O)N[C@H](C(=O)NCC(=O)N[C@@H](CC(C)C)C(=O)N1CCC[C@H]1C(=O)N[C@@H](C)C(=O)N[C@@H](CC(C)C)C(=O)N[C@H](C(=O)N[C@@H](CO)C(=O)N[C@@H](Cc1c[nH]c2ccccc12)C(=O)N[C@H](C(=O)N[C@@H](CCCCN)C(=O)N[C@@H](CCCNC(=N)N)C(=O)N[C@@H](CCCCN)C(=O)N[C@@H](CCCNC(=N)N)C(=O)N[C@@H](CCC(N)=O)C(=O)N[C@@H](CCC(N)=O)C(N)=O)[C@@H](C)CC)[C@@H](C)CC)[C@@H](C)O)[C@@H](C)O)C(C)C)C(C)C` [Melittin], the IC50 in [4] (setting [12]) turned out to be 0.5 ± 0.02 µM; in data set [1] (setting [13]) it was 0.8 ± 0.02 µM; in data set [5] (setting [14]) it was 2.5 ± 0.1 µM; in data set [6] (setting [15]) it was 3.2 ± 0.3 µM; in data set [7] (setting [17]) it was 0.6 ± 0.02 µM; in data set [8] (setting [18]) it was 6 ± 0.03 µM. Besides, the RBCs lysed result in [9] is reported as “about 100%”.

Take `COc1cccc2c1C(=O)c1c(O)c3c(c(O)c1C2=O)C[C@@](O)(C(=O)CO)C[C@@H]3O[C@H]1C[C@H](N)[C@H](O)[C@H](C)O1` [Doxorubicin, doxorubicin]: the IC50 in data set [4] (Homo sapiens, CCRF-CEM, 24 h, read-out: IC50, Leukemia cells CCRF-CEM) was 0.4 ± 0.1 µM; in data set [1] (setting [10]), 0.19 ± 0.01 µM; in data set [1] (Homo sapiens, HL-60, 24 h, read-out: IC50, Leukemia cells HL-60) it was 0.19 ± 0.01 µM; in data set [5] (Homo sapiens, Jurkat, 24 h, read-out: IC50, Leukemia cells Jurkat), 0.4 ± 0.1 µM; in data set [6] (Homo sapiens, K562, 24 h, read-out: IC50, Leukemia cells K-562), greater than 10 µM; in [2] (setting [11]), 1.86 ± 0.1 µM. Also, the concentration for half-maximal inhibition (IC50) worked out at 1.9 ± 0.1 µM in data set [2] (24 h, read-out: IC50, Normal cells Lymphoblast (RPMI7666)); 4.1 ± 0.4 µM in data set [7] (Homo sapiens, AGS, 24 h, read-out: IC50, Stomach Carcinoma AGS); 2 ± 0.7 µM in data set [8] (Mus musculus, NIH3T3, 24 h, read-out: IC50, Normal cells Tissue cells (3T3)); 0.46 ± 0.07 µM in [3]. The same compound showed an RBCs lysed in [9] of roughly 20%.

As to `CN(Cc1cnc2nc(N)nc(N)c2n1)c1ccc(C(=O)N[C@@H](CCC(=O)O)C(=O)O)cc1` [MTX, methotrexate], the IC50 in [1] (setting [10]) was determined as 0.018 ± 0.01 µM; in data set [2] (setting [11]), 0.132 ± 0.04 µM; in [3], 0.017 ± 0.01 µM.

With `Nc1ccn([C@@H]2O[C@H](CO)[C@@H](O)[C@@H]2O)c(=O)n1` [Ara-C, cytarabine], the figures for the IC50 in data set [1] (setting [10]), in data set [2] (setting [11]) and in data set [3] were 0.08 ± 0.02 µM, 0.3 ± 0.1 µM and 0.1 ± 0.01 µM, respectively.

Regarding “KWKVFKKIEKKWKVFKKIEKAGPKWKVFKKIEK [CHM1]”, the IC50 in data set [4] (24 h) is 4.4 ± 0.3 µM; in data set [1] (24 h), 6.7 ± 1.1 µM; in [5] (24 h) it was 10.1 ± 1.2 µM; in [6] (24 h), 8.5 ± 0.6 µM; in data set [2] (setting [16]) it was greater than 100 µM; in data set [7] (24 h), 5.6 ± 0.5 µM. This compound registered an IC50 in data set [8] (24 h) greater than 50 µM. Also, the “effect on normal lymphoblasts (in words)” value in data set [2] (summary of Table 1) is recorded as “little effect”. In [8] (summary of Table 1), the “effect on normal tissue cells (in words)” value is given as “little effect”.

As for GIGKFLHSAKKFGKAFVGEIMNS [Magainin II], the half-maximal inhibitory concentration (IC50) in data set [4] (24 h) was 32.9 ± 0.9 µM; in [1] (24 h), 38.3 ± 3.2 µM; in [5] (24 h), 44 ± 2.4 µM; in data set [6] (24 h), greater than 50 µM; in data set [7] (24 h), 28.7 ± 5 µM; in data set [8] (24 h), greater than 50 µM.

On to “KWKVFKKIEKMGRNIRNGIVKAGPAIAVLGEAKAL-NH2 [CB, cecropin B]”, for which the 50% inhibitory concentration (IC50) in [4] (24 h) is 11.7 ± 1.3 µM; in data set [1] (24 h), 18.5 ± 1.7 µM; in [5] (24 h), 31.5 ± 3 µM; in [6] (24 h), greater than 50 µM; in [2] (setting [16]), greater than 200 µM; in [7] (24 h), greater than 50 µM. The IC50 in [8] (24 h) is greater than 50 µM.
